The values that follow come from patent publication US6433178B1, “3-alkyl-3-phenyl-piperidines” (Warner-Lambert Company, priority 1996, dated 2002).

Bounds are passed on as bounds.

For data set [1], the target named is T1, NK3 receptors (Homo sapiens, UniProt P29371).
T1 construct: expressed in transfected cells; host or cells: CHO cells
T1 sequence (P29371 1-465): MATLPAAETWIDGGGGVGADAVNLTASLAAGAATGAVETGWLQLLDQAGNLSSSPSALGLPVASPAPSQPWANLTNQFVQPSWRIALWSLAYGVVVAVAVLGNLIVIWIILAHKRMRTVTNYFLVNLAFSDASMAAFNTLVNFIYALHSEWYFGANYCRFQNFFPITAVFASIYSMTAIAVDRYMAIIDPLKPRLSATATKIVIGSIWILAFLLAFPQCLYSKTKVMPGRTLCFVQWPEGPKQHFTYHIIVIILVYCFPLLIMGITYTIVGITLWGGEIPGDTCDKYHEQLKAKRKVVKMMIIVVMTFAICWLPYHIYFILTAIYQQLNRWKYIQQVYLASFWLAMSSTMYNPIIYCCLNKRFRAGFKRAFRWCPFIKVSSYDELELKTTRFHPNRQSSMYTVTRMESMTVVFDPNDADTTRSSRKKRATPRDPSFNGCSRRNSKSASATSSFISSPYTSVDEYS
Briefly: Receptor binding in transfected CHO cells (125I-labeled ligand displacement), NK3. The note with it: CHO cells expressing human NK3; 0.2 nM 125I-labeled ligand; 1 hour at room temperature. The method, then: (§1) 1. Receptor Binding in Transfected CHO Cells
(§2) CHO cells expressing either human NK1 or NK3 receptors were cultured in Ham's F-12 Nutrient Mixture supplemented with 10% fetal call serum and 1% penicillin/streptomycin. Cells were seeded to 96-well Wallac (Gaithersburg, Md.) rigid crosstalk corrected cell culture plate 1 day before experiment. On the day of each experiment, cells were washed twice with phosphate buffered saline (PBS) and appropriate agonists or antagonists were added and incubated in 0.2 nM ^125I-labeled ligand in PBS containing 0.4 mg/mL BSA, 0.08 mg/mL bacitracin, 0.004 mg/mL chymostatin, 0.004 mg/mL leupeptin, 1 μM thiorphan, 25 μM phosphoramidon, and 2 mM MnCl2. The cells were incubated for 1 hour at room temperature and the reactions terminated by two washes with ice cold PBS. Fifty microliters of 2% SDS followed by 175 μL of Ready Gel (Beckman) were added to each well. Plates were vortexed, and the radioactivity was quantified in a Wallac 1450 microbeta scintillation counter. Nonspecific binding was determined in the presence of 1 μM unlabeled corresponding ligand. Receptor binding data were analyzed with nonlinear curve fitting using KaleidaGraph software package (PCS Inc., Reading, Pa.). IC50 values were determined using a modified Hill equation, [formula]
(§3) where cold ligand represents unlabeled ligand, L represents the concentration of unlabeled ligand, n the Hill coefficient, and IC50 the concentration of unlabeled ligand that causes 50% inhibition of the total specific binding of 0.2 nM radiolabeled ligand.

The target in the next data set is T2, human NK1 receptors (Homo sapiens, UniProt P25103).
T2 construct: expressed in transfected cells; host or cells: CHO cells
Briefly: Receptor binding in transfected CHO cells (125I-labeled ligand displacement), NK1. The note with it: CHO cells expressing human NK1; 0.2 nM 125I-labeled ligand; 1 hour at room temperature. The method, then:
as §1, §2, §3

Data set [2] addresses T1, NK3 receptors. Put plainly: Inhibition of agonist-induced phosphatidylinositol turnover (inositol phosphates accumulation) in transfected CHO cells. In kind it is cell-based. The note with it: CHO cells expressing NK3 receptors; 1 μM of tested compounds; pKB=log(dose ratio−1)−log[B]. The method, then: 2. Inhibition of Phosphatidylinositol Turnover in Transfected CHO Cells
The inhibitory effects of these compounds on agonist-induced phosphatidylinositol turnover was estimated by measuring their effects on inositol phosphates (IP) accumulation in CHO cells expressing NK3 receptors. Briefly, cells (10,000/well) were seeded in 96-well cell culture plates 24 hours before changing medium to EMEM/F-12 (w/Earle's salt, w/glutamine; GIBCOL) containing 10 μCi/mL [^3H]inositol. After overnight incubation with [^3H]inositol, medium was removed and cells were washed twice with assay buffer (MEM with 10 mM LiCl, 20 mM HEPES, and 1 mg/mL BSA). Cells were then incubated with various concentrations of agonists with or without 1 μM of tested compounds for 1 hour. Reactions were stopped by two washes with ice-cold PBS followed by the addition of 0.1 mL ice-cold 5% TCA to each well. The TCA extract was applied to a […] column containing AG 1-X8 resin (Bio-Rad) and washed three times with 5 mM myo-inositol. Inositol phosphates (IP) was eluted with 1 M ammonium formate/0.1 M formic acid. Radioactivity was determined by liquid scintillation counting. Data were analyzed with nonlinear curve fitting using KaleidaGraph software package (PCS Inc, Reading, Pa.). The pKB values in Table 2 were calculated according to the formula: pKB=log(dose ratio−1)−log[B].

A short description of data set [3]: Pharmacokinetics in male Wistar rats after an oral dose. The note with it: oral dose of ~20 mg/kg, solution in PEG 400/Ethanol/Water (40/15/45); for AUC / Cmax / Tmax / half-life: rat, plasma; for AUC: read-out: AUC(0-tldc) (area under the plasma concentration-time curve from zero time to the last detectable concentration); for Cmax: read-out: Cmax (the highest plasma concentration); for Tmax: read-out: tmax (time to reach the highest plasma concentration); for half-life: read-out: t½ (terminal elimination half-life) (converted). In kind it is in vivo.

T2 sequence (P25103 whole entry): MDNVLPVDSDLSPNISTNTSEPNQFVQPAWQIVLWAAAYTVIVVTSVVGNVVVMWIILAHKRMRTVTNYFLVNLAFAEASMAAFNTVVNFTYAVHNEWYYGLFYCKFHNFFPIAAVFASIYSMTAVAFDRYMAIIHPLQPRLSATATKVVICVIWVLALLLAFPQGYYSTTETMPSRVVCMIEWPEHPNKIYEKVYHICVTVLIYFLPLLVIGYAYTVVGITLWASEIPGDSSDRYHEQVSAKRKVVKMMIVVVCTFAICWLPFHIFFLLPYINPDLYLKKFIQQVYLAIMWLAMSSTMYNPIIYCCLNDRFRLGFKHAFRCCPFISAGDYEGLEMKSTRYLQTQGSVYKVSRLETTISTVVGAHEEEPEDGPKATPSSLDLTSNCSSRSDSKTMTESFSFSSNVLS

Usually IC50 stands for the concentration needed to halve the response being measured. Turning to `Cl.O=C(c1ccccc1)N1CCCC(CCCN2CCC(O)(CS(=O)(=O)c3ccccc3)CC2)(c2ccc(Cl)c(Cl)c2)C1` (centres unmarked) [Compound 20-1, {3-[3-(4-Benzensulfonylmethyl-4-hydroxy-piperidin-1-yl]-3-(3,4-dichlorophenyl)-piperidin-1-yl}-phenyl-methanone monohydrochloride], the figures for the IC50 on NK3 receptors [1] and on human NK1 receptors were 5.9 ± 0.4 nM and over 1000 nM, respectively.
As a reminder, the pKB is the negative decadic logarithm of the KB, by convention in mol/L. On to `Cl.O=C(c1ccccc1)N1CCCC(CCCN2CCC(O)(CS(=O)(=O)c3ccccc3)CC2)(c2ccc(Cl)c(Cl)c2)C1` (centres unmarked) [Compound 20-1], for which, on NK3 receptors [2], the pKB is on record as 8.2 ± 0.4. Besides, the “tmax (time to reach the highest plasma concentration)” value in data set [3] (mean) turned out to be 1.3 h. In addition, in data set [3] (mean (SD)), the “AUC(0-tldc) (area under the plasma concentration-time curve from zero time to the last detectable concentration)” value is recorded as 366 (140) ng · hr/mL and the “Cmax (the highest plasma concentration)” value was 74.0 (12.9) ng/mL.
As a reminder, the half-life is the time needed for the level to fall by half in the phase considered. In turn, `Cl.O=C(c1ccccc1)N1CCCC(CCCN2CCC(O)(c3ccccc3)CC2)(c2ccc(Cl)c(Cl)c2)C1` (centres unmarked) [Compound 20-2, {3-(3,4-Dichlorophenyl)-3-[3-(4-hydroxy-4-phenyl-piperidin-1-yl)-propyl]-piperidin-1-yl}-phenyl-methanone monohydrochloride] gave an IC50 on NK3 receptors [1] of 6.2 ± 0.6 nM. Further, the IC50 on human NK1 receptors is over 1000 nM. Moreover, the Kb at NK3 receptors [2] was 5.01 nM. Also, in data set [3] (mean (SD)), the AUC was determined as 716 ng·h/mL and the Cmax was 125 ng/mL. Besides, in data set [3] (mean), the Tmax worked out at 1.3 h and the half-life was 7.4 h.
Take `Cl.O=C(c1ccccc1)N1CCCC(CCCN2CCC(c3ccccc3)CC2)(c2ccc(Cl)c(Cl)c2)C1` (centres unmarked) [Compound 20-3, {3-(3,4-Dichlorophenyl)-3-[3-(4-phenyl-piperidin-1-yl)-propyl]-piperidin-1-yl}-phenyl-methanone monohydrochloride]: the IC50 at NK3 receptors [1] came out at 17.8 ± 1.5 nM; on human NK1 receptors, 694 ± 89 nM. For the same compound, on NK3 receptors [2], the Kb was 12.6 nM. Also, the AUC in data set [3] (mean (SD)) came out at 572 ng·h/mL. In data set [3] (mean (SD)), the Cmax came to 107 ng/mL. Besides, the Tmax in data set [3] (mean) amounted to 1.8 h.
Turning to `CC(=O)N(C)C1(c2ccccc2)CCN(CCC[C@]2(c3ccc(Cl)c(Cl)c3)CCCN(C(=O)c3ccccc3)C2)CC1` [SR 142801, reference compound], in data set [3] (mean (SD)), the AUC turned out to be 703 ng·h/mL and the Cmax came out at 133 ng/mL. In addition, in data set [3] (mean), the Tmax was found to be 1.8 h and the half-life was 5.3 h.
